pIC50: −log10 of the molar value. Converted amounts (≈) assume the structure as drawn.
Columns and labels:
A549 [1] = experiment: Cytotoxicity against human A549 cells assessed as cell growth inhibition measured after 72 hrs by MTT assay; format: functional, cell-based; conditions: A549, 72 h
HL-60 [2] = experiment: Cytotoxicity against human HL-60 cells assessed as cell growth inhibition measured after 72 hrs by MTT assay; format: functional, cell-based; conditions: HL-60, 72 h
HL-60 [3] = experiment: Antiproliferative activity against human HL-60 cells assessed as cell growth inhibition measured after 72 hrs by CCK-8 assay; format: functional, cell-based; conditions: HL-60, 72 h
[4] = Toxicity in brine shrimp assessed as induction of lethality; conditions: artemia salina; read-out: LD50 (the source's name)
HL-60 [5] = experiment: Antiproliferative activity against human HL-60 cells assessed as cell growth inhibition by MTT assay; format: functional, cell-based
A549 [6] = experiment: Antiproliferative activity against human A549 cells assessed as cell growth inhibition by MTT assay; format: functional, cell-based
P388 = experiment: Cytotoxicity against mouse P388 cells assessed as cell growth inhibition measured after 72 hrs by MTT assay; format: functional, cell-based
HCT-116 [7] = experiment: Cytotoxicity against human HCT-116 cells assessed as cell growth inhibition by MTT assay; format: functional, cell-based
Staphylococcus aureus [8] = experiment: Antibacterial activity against methicillin-resistant Staphylococcus aureus assessed as bacterial cell growth inhibition by agar dilution method; format: functional
Candida albicans [9] = experiment: Antifungal activity against Candida albicans ATCC 10231 assessed as fungal growth inhibition by agar dilution method; format: functional
[10] = target: Prostaglandin G/H synthase 2 (Homo sapiens) (UniProt P35354); experiment: Inhibition of COX2 (unknown origin) at 20 nM relative to control
Sequence of Prostaglandin G/H synthase 2 (Homo sapiens) (P35354 whole entry, looked up): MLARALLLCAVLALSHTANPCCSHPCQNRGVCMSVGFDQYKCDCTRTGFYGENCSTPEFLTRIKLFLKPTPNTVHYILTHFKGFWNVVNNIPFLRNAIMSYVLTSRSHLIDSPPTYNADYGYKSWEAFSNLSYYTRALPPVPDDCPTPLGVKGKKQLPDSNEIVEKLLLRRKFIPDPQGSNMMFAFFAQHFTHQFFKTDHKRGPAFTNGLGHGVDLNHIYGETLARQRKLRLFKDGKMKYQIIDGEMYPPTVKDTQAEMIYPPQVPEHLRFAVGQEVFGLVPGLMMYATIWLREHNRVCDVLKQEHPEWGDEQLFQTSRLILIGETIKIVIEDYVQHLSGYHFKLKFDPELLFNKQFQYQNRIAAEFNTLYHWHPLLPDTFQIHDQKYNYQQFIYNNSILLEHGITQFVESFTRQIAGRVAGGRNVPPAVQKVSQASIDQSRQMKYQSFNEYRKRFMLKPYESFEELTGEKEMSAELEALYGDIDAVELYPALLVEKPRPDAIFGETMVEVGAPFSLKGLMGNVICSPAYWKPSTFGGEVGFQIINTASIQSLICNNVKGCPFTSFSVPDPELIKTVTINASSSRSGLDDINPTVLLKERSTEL

[11] = Antioxidant activity assessed as free radical scavenging activity incubated for 30 mins by microplate reader analysis; format: functional
HCT-116 [12] = experiment: Cytotoxicity against human HCT-116 cells assessed as cell growth inhibition incubated for 48 hrs by CCK-8 assay; format: functional, cell-based; conditions: HCT-116, 48 h
A549 [13] = experiment: Cytotoxicity against human A549 cells assessed as cell growth inhibition incubated for 48 hrs by CCK-8 assay; format: functional, cell-based; conditions: A549, 48 h
HeLa = experiment: Cytotoxicity against human HeLa cells assessed as cell growth inhibition by MTT assay; format: functional, cell-based
Influenza A virus = experiment: Antiviral activity against Influenza A virus H1N1; format: functional, organism-based
[14] = Antioxidant activity assessed as free radical scavenging activity incubated for 30 mins under dark condition by microplate reader analysis; format: functional
Staphylococcus aureus [15] = experiment: Antibacterial activity against Staphylococcus aureus ATCC 25923 assessed as bacterial growth inhibition; format: functional, organism-based
Candida albicans [16] = experiment: Antifungal activity against Candida albicans assessed as fungal growth inhibition measured after 20 hrs; format: functional
SGC-7901 = experiment: Cytotoxicity against human SGC-7901 cells assessed as cell growth inhibition measured after 48 hrs by MTT assay; format: functional, cell-based; conditions: SGC-7901, 48 h
A-375 = experiment: Cytotoxicity against human A-375 cells assessed as cell growth inhibition by MTT assay; format: functional, cell-based
MCF7 = experiment: Cytotoxicity against human MCF7 cells assessed as cell growth inhibition by MTT assay; format: functional, cell-based
A549 [17] = experiment: Cytotoxicity against human A549 cells assessed as cell growth inhibition by MTT assay; format: functional, cell-based
HepG2 = experiment: Cytotoxicity against human HepG2 cells assessed as cell growth inhibition by MTT assay; format: functional, cell-based

## CC1(C)C=Cc2c(ccc3c2[N+]([O-])=C2C3=C[C@@]34NC(=O)[C@]5(CCCN5C3=O)C[C@@H]4C2(C)C)O1
A549 [1]
  pIC50: 5.72
HL-60 [2]
  pIC50: 5.52

## C/C=C/[C@H](O)[C@H](C)/C=C(C)/C=C/C/C(C)=C/Cc1[nH]c(OC)cc(=O)c1C
HL-60 [3]
  pIC50: > 7.00

## CCCCC[C@@H]1Cc2cc(O)c(C)c(O)c2C(=O)O1
[4]
  LC50: 7.7 µg/mL (≈ 29.1 µM)

## COC1=C(CO)O[C@@H]2C[C@@]1(OC)n1c3ccccc3c3c4c(c5c6ccccc6n2c5c31)C(=O)NC4
HL-60 [5]
  pIC50: 5.85
A549 [6]
  pIC50: 5.30

## CC1=CC(=O)[C@H]2C(C)(C)CCC[C@]2(C)[C@@]1(O)C=O
P388; Mus musculus, P388, 72 h
  pIC50: 5.06

## C/C1=C\C=C\C(C)C(O)CC(O)C(C)C(O)CCC(C)C(O)CC2(O)OC(CC(OC(=O)CC(=O)O)CC(O)CC(O)CC(O)/C(C)=C/C=C/C(C)C(C(C)CCC/C=C/CCCNC(=N)N)OC1=O)CC(O)C2O (configuration not stated)
HCT-116 [7]
  IC50: 1.81 µg/mL
Staphylococcus aureus [8]
  MBC: 8 µg/mL (≈ 7.49 µM)
  MIC: 4 µg/mL (≈ 3.74 µM)
Candida albicans [9]
  MIC: 1.65 µg/mL (≈ 1.54 µM)

## C=CC(C)(C)c1[nH]c2ccccc2c1/C=C1\NC(=O)[C@@]2(C[C@@H](C)C=C[C@@H]2/C=C/c2c(O)cc(CC=C(C)C)c(O)c2C=O)NC1=O
P388; Mus musculus, P388, 72 h
  pIC50: 4.95

## C=CC(C)(C)c1[nH]c2ccccc2c1/C=C1\NC(=O)[C@]2(C[C@H](C)C=C[C@@H]2CCc2c(O)cc(CC=C(C)C)c(O)c2C=O)NC1=O (stereo in doubt)
P388; p388
  pIC50: 5.60

## CCOC(=O)[C@]1(Cc2ccccc2)OC(=O)C(O)C1c1ccc(O)cc1 (some centres not stated)
[10]
  inhibition: 98.3%

## O=C(O)CCCNC(=O)c1ccc(O)c(O)c1
[11]
  pIC50: 5.33

## O=C(NCCCO)c1ccc(O)c(O)c1
[11]
  pIC50: 5.33

## C[C@@H]1O[C@@H](Oc2ccc(C3COc4cc(O)ccc4C3=O)cc2)C[C@H](O)[C@@H]1O (some centres not stated)
HCT-116 [12]
  IC50: 13.5 µg/mL
A549 [13]
  IC50: 13.5 µg/mL (≈ 34.9 µM)

## CCC(=O)OCc1c(OCC=C(C)C)c(C)cc(OC)c1C(=O)c1c(O)ccc2c1OC(C)(C)C=C2
HeLa
  pIC50: 5.04

## CN[C@@H]1O[C@H]2C[C@@](C)([C@@H]1OC)n1c3ccccc3c3c4c(c5c6ccccc6n2c5c31)C(=O)NC4
HCT-116 [7]
  pIC50: 7.40

## C[C@@H]1O[C@@H](Oc2ccc(-c3cc(=O)c4ccc(O[C@H]5C[C@H](O)[C@H](O)[C@H](C)O5)cc4o3)cc2)C[C@H](O)[C@@H]1O
HCT-116 [12]
  IC50: 13.5 µg/mL
A549 [13]
  IC50: 13.5 µg/mL (≈ 26.2 µM)

## CC(=O)C[C@H](c1nc2ccccc2c(=O)n1[C@@H]1C[C@]2(OC1=O)c1ccccc1N1C(=O)[C@H](C)N[C@H]12)C(C)C
Influenza A virus
  pIC50: 4.09

## CC1(C)C=Cc2c(ccc3c4c(n(O)c23)C(C)(C)[C@H]2C[C@]35CCCN3C(=O)[C@@]2(C4)NC5=O)O1
A549 [1]
  pIC50: 5.73
HL-60 [2]
  pIC50: 5.35

## C/N=C(\N)NCCC/C=C/CCCC(C)C1OC(=O)/C(C)=C/C=C/C(C)C(O)CC(O)C(C)C(O)CCC(C)C(O)CC2(O)OC(CC(OC(=O)CC(=O)O)CC(O)CC(O)CC(O)/C(C)=C/C=C/C1C)CC(O)C2O (configuration not stated)
HCT-116 [7]
  IC50: 1.81 µg/mL
Staphylococcus aureus [8]
  MBC: 8 µg/mL (≈ 7.39 µM)
  MIC: 4 µg/mL (≈ 3.7 µM)
Candida albicans [9]
  MIC: 1.65 µg/mL (≈ 1.52 µM)

## C/C=C/C=C/CCc1c(O)ccc(O)c1COC
[14]
  pIC50: 4.75

## O=C1OC(Cc2ccc(O)cc2)C(c2ccc(O)cc2)C1O (configuration not stated)
Staphylococcus aureus [15]
  pIC50: 4.76

## C=C1CCC(C(C)C)C2/C=C(\C(=O)OC)CC/C=C(/C(=O)O)C(O)CC12 (configuration not stated)
HCT-116 [12]
  pIC50: 4.42

## O=C1O/C(=C\c2ccc(O)cc2)C(O)=C1c1ccc(O)cc1 [ASPULVINONE E]
Staphylococcus aureus [15]
  pIC50: 4.58

## CCCCC[C@H]1C(=O)O[C@H](C)[C@H](NC(=O)c2cccc(NC=O)c2O)C(=O)O[C@@H](C)[C@@H]1OC(=O)[C@@H](C)C(C)C
Candida albicans [16]
  MIC: 5 µg/mL (≈ 9.11 µM)

## CCCC1C(=O)C2CCC3(C)CC(C)C(O3)C(O)/C=C(\C)C(=O)CC1OC2=O (configuration not stated)
[14]
  pIC50: 5.62

## CC[C@H]1/C=C/C[C@H](CC(C)C)OC(=O)/C(C)=C\[C@@H]2C(=O)NC3=CC(=O)c4c(cc(C)c(O)c4C(=O)CC1)[C@@]32O
SGC-7901
  pIC50: 5.33

## O=C1NC(=O)[C@H](Cc2c[nH]c3ccccc23)n2c1nc1ccccc1c2=O
Influenza A virus
  pIC50: 4.09

## COc1ccc(C[C@@H]2NC(=O)[C@@]34OC(=O)O/C=C/[C@@](C)(O)C(=O)[C@@H](C)C/C=C/[C@H]3C(O)C(C)=C(C)[C@@H]24)cc1 (some centres not stated)
A-375
  pIC50: 6.33
MCF7
  pIC50: 6.33
A549 [17]
  pIC50: 6.33
HepG2
  pIC50: 6.33

## O=C(CNC(=O)c1ccccc1-n1c(=O)[nH]c2ccccc2c1=O)c1ccccc1
[10]
  inhibition: > 65%

Reference: ChEMBL document CHEMBL5107956, “Natural products from mangrove sediments-derived microbes: Structural diversity, bioactivities, biosynthesis, and total synthesis” (Eur J Med Chem, 2022)
